The values below are quoted from earlier work in patent US6214377A (Jenapharm GmbH, priority 1994, dated 2001).

For series [1] the following is noted: human body.
The conditions of series [2]: peroral administration.

Molecules are shown by their SMILES.

`COc1ccc2[nH]cc(CCNC(C)=O)c2c1` [melatonin, N-acetyl-5-methoxy-triptamine]: the half-life period result in series [1] is reported as “about 30 minutes”. Moreover, the “side effects of unphysiological overdose” value in series [2] was “Increased spasmogenic situations, confusion, and sleeplessness”.
